Earlier results, collected in US9920014B2, “Selective inhibition of bacterial topoisomerase I” (THE FLORIDA INTERNATIONAL BOARD OF TRUSTEES MODESTO A. …, priority 2013, dated 2018).

Biological target: E. coli DNA topoisomerase I (Escherichia coli, UniProt P06612)
Settings: reported by Bansal et al. 2012; read-out: E. coli Topo I IC50 (literature value); cited from earlier work

Sequence of E. coli DNA topoisomerase I (P06612 whole entry): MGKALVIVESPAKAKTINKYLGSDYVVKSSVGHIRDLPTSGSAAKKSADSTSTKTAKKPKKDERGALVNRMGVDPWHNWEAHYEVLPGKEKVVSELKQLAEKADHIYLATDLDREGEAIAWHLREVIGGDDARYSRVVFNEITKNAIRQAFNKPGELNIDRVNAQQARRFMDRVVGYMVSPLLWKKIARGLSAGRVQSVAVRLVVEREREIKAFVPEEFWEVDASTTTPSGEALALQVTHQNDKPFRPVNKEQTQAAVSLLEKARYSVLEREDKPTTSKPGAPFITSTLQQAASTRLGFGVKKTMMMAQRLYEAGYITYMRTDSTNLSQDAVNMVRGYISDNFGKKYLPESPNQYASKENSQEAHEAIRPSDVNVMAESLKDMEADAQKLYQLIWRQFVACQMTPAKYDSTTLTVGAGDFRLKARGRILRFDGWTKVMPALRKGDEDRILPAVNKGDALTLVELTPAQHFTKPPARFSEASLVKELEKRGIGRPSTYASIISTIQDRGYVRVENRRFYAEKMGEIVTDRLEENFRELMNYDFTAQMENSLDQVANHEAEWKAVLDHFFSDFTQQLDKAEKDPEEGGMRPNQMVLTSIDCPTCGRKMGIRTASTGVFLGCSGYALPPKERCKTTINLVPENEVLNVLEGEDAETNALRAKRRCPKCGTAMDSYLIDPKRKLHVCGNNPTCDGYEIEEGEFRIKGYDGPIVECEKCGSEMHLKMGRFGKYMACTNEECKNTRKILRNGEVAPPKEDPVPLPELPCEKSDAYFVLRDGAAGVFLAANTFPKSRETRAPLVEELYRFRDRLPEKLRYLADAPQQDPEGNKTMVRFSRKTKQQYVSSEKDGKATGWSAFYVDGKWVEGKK

COc1ccc(-c2nc3ccc(-c4nc5ccc(N6CCN(C)CC6)cc5[nH]4)cc3[nH]2)cc1OC [DMA]
IC50: 3.8 µM
